Reference: patent US9260439B2, “Dihydropyrrolopyrimidine derivatives” (PFIZER INC., priority 2014, dated 2016)

Target: truncated PI3Kα (p110α/iSH2 p85α) (Homo sapiens (Human), UniProt P42336)
Assay: PI3KA_Act fluorescence polarization kinase assay (Ki)
Assay type: biochemical
Details: 1 mM ATP
How it was run: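 p110α/iSH2 p85α (0.5 nM) was reacted with 30 μM sonicated PIP2 in 50 mM HEPES pH 7.4, 150 mM NaCl, 5 mM MgCl2, 1 mM DTT and 0.05% CHAPS for 30 min at room temperature, then stopped with EDTA. PIP3 was detected by fluorescence polarization (GST-Grp1 PH domain/TAMRA-PIP3), and Ki came from a Morrison tight-binding fit.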

truncated PI3Kα (p110α/iSH2 p85α), sequence (P42336 whole entry, the tested form may be a part): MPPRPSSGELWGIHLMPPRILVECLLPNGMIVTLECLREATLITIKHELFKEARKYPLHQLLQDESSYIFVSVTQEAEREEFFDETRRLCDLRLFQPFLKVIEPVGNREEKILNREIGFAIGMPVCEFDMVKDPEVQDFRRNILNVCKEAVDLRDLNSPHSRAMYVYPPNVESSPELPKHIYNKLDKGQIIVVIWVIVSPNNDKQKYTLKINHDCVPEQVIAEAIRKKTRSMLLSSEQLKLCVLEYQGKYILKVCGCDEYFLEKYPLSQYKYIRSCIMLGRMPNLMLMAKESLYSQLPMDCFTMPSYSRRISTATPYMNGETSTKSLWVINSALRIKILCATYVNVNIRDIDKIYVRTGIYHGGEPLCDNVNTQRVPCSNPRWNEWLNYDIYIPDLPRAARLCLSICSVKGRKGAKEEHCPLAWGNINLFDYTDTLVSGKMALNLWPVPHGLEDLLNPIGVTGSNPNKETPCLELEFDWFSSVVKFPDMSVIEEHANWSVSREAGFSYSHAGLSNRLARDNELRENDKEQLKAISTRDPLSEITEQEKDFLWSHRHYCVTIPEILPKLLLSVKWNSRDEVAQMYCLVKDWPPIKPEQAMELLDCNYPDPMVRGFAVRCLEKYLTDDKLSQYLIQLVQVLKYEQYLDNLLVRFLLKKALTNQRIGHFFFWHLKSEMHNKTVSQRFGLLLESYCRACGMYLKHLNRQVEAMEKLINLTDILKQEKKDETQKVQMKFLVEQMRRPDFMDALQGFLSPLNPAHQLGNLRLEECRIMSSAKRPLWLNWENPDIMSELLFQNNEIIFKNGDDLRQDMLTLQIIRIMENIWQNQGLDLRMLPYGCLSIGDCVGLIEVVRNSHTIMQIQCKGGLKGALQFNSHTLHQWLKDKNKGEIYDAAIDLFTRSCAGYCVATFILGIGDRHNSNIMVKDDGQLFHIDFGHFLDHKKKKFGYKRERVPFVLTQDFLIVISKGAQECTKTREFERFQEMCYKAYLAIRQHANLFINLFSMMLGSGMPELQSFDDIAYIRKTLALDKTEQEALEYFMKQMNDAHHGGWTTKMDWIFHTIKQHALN

| SMILES | PI3KA_Act Ki [nM] |
| --- | --- |
| COCC(=O)N1CC[C@@](C)(N2CCc3c(-c4cnc(N)nc4)nc(N4CCOCC4)nc32)C1 [Example 280, 1-{(3R)-3-[4-(2-aminopyrimidin-5-yl)-2-(morpholin-4-yl)-5,6-dihydro-7H-pyrrolo[2,3-d]pyrimidin-7-yl]-3-methylpyrrolidin-1-yl}-2-methoxyethanone] | 0.154 |
| CC(C)(N)CC(=O)N1CC[C@](C)(N2CCc3c(-c4cnc(N)nc4)nc(N4CCOCC4)nc32)C1.Cl [Example 281, 3-amino-1-{(3S)-3-[4-(2-aminopyrimidin-5-yl)-2-(morpholin-4-yl)-5,6-dihydro-7H-pyrrolo[2,3-d]pyrimidin-7-yl]-3-methylpyrrolidin-1-yl}-3-methylbutan-1-one hydrochloride] | 0.024 |
| CC(C)(N)C(=O)N1CC[C@@H](N2CCc3c(-c4cnc(N)nc4)nc(N4CCOCC4)nc32)C1.Cl [Example 282, 2-amino-1-{(3R)-3-[4-(2-aminopyrimidin-5-yl)-2-(morpholin-4-yl)-5,6-dihydro-7H-pyrrolo[2,3-d]pyrimidin-7-yl]pyrrolidin-1-yl}-2-methylpropan-1-one hydrochloride] | 4.040 |
| CC(C)(N)C(=O)N1CC[C@H](N2CCc3c(-c4cnc(N)nc4)nc(N4CCOCC4)nc32)C1.Cl [Example 283, 2-amino-1-{(3S)-3-[4-(2-aminopyrimidin-5-yl)-2-(morpholin-4-yl)-5,6-dihydro-7H-pyrrolo[2,3-d]pyrimidin-7-yl]pyrrolidin-1-yl}-2-methylpropan-1-one hydrochloride] | 0.208 |
| CC[C@@]1(N2CCc3c(-c4cnc(N)nc4)nc(N4CCOCC4)nc32)CCN(C(=O)C(C)(C)N)C1.Cl [Example 284, 2-amino-1-{(3R)-3-[4-(2-aminopyrimidin-5-yl)-2-(morpholin-4-yl)-5,6-dihydro-7H-pyrrolo[2,3-d]pyrimidin-7-yl]-3-ethylpyrrolidin-1-yl}-2-methylpropan-1-one hydrochloride] | 0.368 |
| CC[C@]1(N2CCc3c(-c4cnc(N)nc4)nc(N4CCOCC4)nc32)CCN(C(=O)C(C)(C)N)C1.Cl [Example 285, 2-amino-1-{(3S)-3-[4-(2-aminopyrimidin-5-yl)-2-(morpholin-4-yl)-5,6-dihydro-7H-pyrrolo[2,3-d]pyrimidin-7-yl]-3-ethylpyrrolidin-1-yl}-2-methylpropan-1-one hydrochloride] | 0.089 |
| CC(C)[C@@H](N)C(=O)N1CC[C@@H](N2CCc3c(-c4cnc(N)nc4)nc(N4CCOCC4)nc32)C1.Cl [Example 286, (2R)-2-amino-1-{(3R)-3-[4-(2-aminopyrimidin-5-yl)-2-(morpholin-4-yl)-5,6-dihydro-7H-pyrrolo[2,3-d]pyrimidin-7-yl]pyrrolidin-1-yl}-3-methylbutan-1-one hydrochloride] | 5.810 |
| CC(C)[C@@H](N)C(=O)N1CC[C@H](N2CCc3c(-c4cnc(N)nc4)nc(N4CCOCC4)nc32)C1.Cl [Example 287, (2R)-2-amino-1-{(3S)-3-[4-(2-aminopyrimidin-5-yl)-2-(morpholin-4-yl)-5,6-dihydro-7H-pyrrolo[2,3-d]pyrimidin-7-yl]pyrrolidin-1-yl}-3-methylbutan-1-one hydrochloride] | 0.462 |
| CC(C)[C@H](N)C(=O)N1CC[C@](C)(N2CCc3c(-c4cnc(N)nc4)nc(N4CCOCC4)nc32)C1.Cl [Example 288, (2S)-2-amino-1-{(3S)-3-[4-(2-aminopyrimidin-5-yl)-2-(morpholin-4-yl)-5,6-dihydro-7H-pyrrolo[2,3-d]pyrimidin-7-yl]-3-methylpyrrolidin-1-yl}-3-methylbutan-1-one hydrochloride] | 0.141 |
| CC(C)(N)C(=O)N1CC[C@@](C)(N2CCc3c(-c4cnc(N)nc4)nc(N4CCOCC4)nc32)C1.Cl [Example 289, 2-amino-1-{(3R)-3-[4-(2-aminopyrimidin-5-yl)-2-(morpholin-4-yl)-5,6-dihydro-7H-pyrrolo[2,3-d]pyrimidin-7-yl]-3-methylpyrrolidin-1-yl}-2-methylpropan-1-one hydrochloride] | 0.075 |
| CCC(C)(N)C(=O)N1CC[C@](C)(N2CCc3c(-c4cnc(N)nc4)nc(N4CCOCC4)nc32)C1.Cl (stereo partly drawn) [Example 290, 2-amino-1-{(3S)-3-[4-(2-aminopyrimidin-5-yl)-2-(morpholin-4-yl)-5,6-dihydro-7H-pyrrolo[2,3-d]pyrimidin-7-yl]-3-methylpyrrolidin-1-yl}-2-methylbutan-1-one hydrochloride] | <0.018 |
| C[C@]1(N2CCc3c(-c4cnc(N)nc4)nc(N4CCOCC4)nc32)CCN(C(=O)[C@H](N)CF)C1.Cl [Example 292, (2S)-2-amino-1-{(3S)-3-[4-(2-aminopyrimidin-5-yl)-2-(morpholin-4-yl)-5,6-dihydro-7H-pyrrolo[2,3-d]pyrimidin-7-yl]-3-methylpyrrolidin-1-yl}-3-fluoropropan-1-one hydrochloride] | <0.018 |
| C[C@]1(N2CCc3c(-c4cnc(N)nc4)nc(N4CCOCC4)nc32)CCN(C(=O)[C@@H](N)CF)C1.Cl [Example 293, (2R)-2-amino-1-{(3S)-3-[4-(2-aminopyrimidin-5-yl)-2-(morpholin-4-yl)-5,6-dihydro-7H-pyrrolo[2,3-d]pyrimidin-7-yl]-3-methylpyrrolidin-1-yl}-3-fluoropropan-1-one hydrochloride] | 0.086 |
| CC(N)(CF)C(=O)N1CC[C@](C)(N2CCc3c(-c4cnc(N)nc4)nc(N4CCOCC4)nc32)C1.Cl (stereo partly drawn) [Example 294, 2-amino-1-{(3S)-3-[4-(2-aminopyrimidin-5-yl)-2-(morpholin-4-yl)-5,6-dihydro-7H-pyrrolo[2,3-d]pyrimidin-7-yl]-3-methylpyrrolidin-1-yl}-3-fluoro-2-methylpropan-1-one hydrochloride] | <0.018 |
| C[C@]1(N2CCc3c(-c4cnc(N)nc4)nc(N4CCOCC4)nc32)CCN(C(=O)[C@@H](N)C2CC2)C1.Cl [Example 296, (2S)-2-amino-1-{(3S)-3-[4-(2-aminopyrimidin-5-yl)-2-(morpholin-4-yl)-5,6-dihydro-7H-pyrrolo[2,3-d]pyrimidin-7-yl]-3-methylpyrrolidin-1-yl}-2-cyclopropylethanone hydrochloride] | <0.018 |
| C[C@]1(N2CCc3c(-c4cnc(N)nc4)nc(N4CCOCC4)nc32)CCN(C(=O)[C@H](N)C2CC2)C1.Cl [Example 297, (2R)-2-amino-1-{(3S)-3-[4-(2-aminopyrimidin-5-yl)-2-(morpholin-4-yl)-5,6-dihydro-7H-pyrrolo[2,3-d]pyrimidin-7-yl]-3-methylpyrrolidin-1-yl}-2-cyclopropylethanone hydrochloride] | 0.019 |
| CNCC(=O)N1CC[C@](C)(N2CCc3c(-c4cnc(N)nc4)nc(N4CCOCC4)nc32)C1 [Example 298, 1-{(3S)-3-[4-(2-aminopyrimidin-5-yl)-2-(morpholin-4-yl)-5,6-dihydro-7H-pyrrolo[2,3-d]pyrimidin-7-yl]-3-methylpyrrolidin-1-yl}-2-(methylamino)ethanone] | <0.018 |
| CN(C)CC(=O)N1CC[C@](C)(N2CCc3c(-c4cnc(N)nc4)nc(N4CCOCC4)nc32)C1 [Example 299, 1-{(3S)-3-[4-(2-aminopyrimidin-5-yl)-2-(morpholin-4-yl)-5,6-dihydro-7H-pyrrolo[2,3-d]pyrimidin-7-yl]-3-methylpyrrolidin-1-yl}-2-(dimethylamino) ethanone] | <0.018 |
